According to ChEMBL document CHEMBL1201862, “PubChem BioAssay data set” (2004):
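Exposure lasted 48 hours, with cells grown in 96-well plates and compounds tested at five concentrations. GI50 marks 50% less growth.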 Calls of active or inactive are those of the source. No stated cut-off is given here; in the data, active = GI50 up to about 1.1 µM and inactive = higher.

Experiments:
Assay in all cases: DTP human tumour cell line panel, 48 h
RPMI-8226 = tested on: RPMI-8226
MCF7 = tested on: MCF7
OVCAR-3 = tested on: OVCAR-3
NCI-H23 = tested on: NCI-H23
U-251 = tested on: U-251
OVCAR-8 = tested on: OVCAR-8
SNB-19 = tested on: SNB-19
COLO 205 = tested on: COLO 205
CCRF-CEM = tested on: CCRF-CEM
UACC-257 = tested on: UACC-257
HOP-92 = tested on: HOP-92
Malme-3M = tested on: Malme-3M
T47D = tested on: T47D
K562 = tested on: K562
PC-3 = tested on: PC-3
SW-620 = tested on: SW-620
TK-10 = tested on: TK-10
NCI-H460 = tested on: NCI-H460
UO-31 = tested on: UO-31
OVCAR-5 = tested on: OVCAR-5

Row | Structure (SMILES) | GI50 (RPMI-8226) | GI50 (MCF7) | GI50 (OVCAR-3) | GI50 (NCI-H23) | GI50 (U-251) | GI50 (OVCAR-8) | GI50 (SNB-19) | GI50 (COLO 205) | GI50 (CCRF-CEM) | GI50 (UACC-257) | GI50 (HOP-92) | GI50 (Malme-3M) | GI50 (T47D) | GI50 (K562) | GI50 (PC-3) | GI50 (SW-620) | GI50 (TK-10) | GI50 (NCI-H460) | GI50 (UO-31) | GI50 (OVCAR-5)
1 | COC(=O)/C=C/c1cc2c(cc1-c1c(C(=O)O)cc(OC)c(OC)c1OC)OCO2 | > 10 µM (inactive) | > 10 µM (inactive) | > 10 µM (inactive) | > 10 µM (inactive) | > 10 µM (inactive) | > 10 µM (inactive) | > 10 µM (inactive) | > 10 µM (inactive) | > 10 µM (inactive) | > 10 µM (inactive) | > 10 µM (inactive) | > 10 µM (inactive) | > 10 µM (inactive) | > 10 µM (inactive) | > 10 µM (inactive) | > 10 µM (inactive) | > 10 µM (inactive) | – | – | –
2 | Cc1cc(C)c2cc(N)c(Cl)nc2n1 | > 100 µM (inactive) | > 100 µM (inactive) | – | > 100 µM (inactive) | 99.5 µM (inactive) | > 100 µM (inactive) | > 100 µM (inactive) | > 100 µM (inactive) | > 100 µM (inactive) | > 100 µM (inactive) | > 100 µM (inactive) | > 100 µM (inactive) | > 100 µM (inactive) | – | > 100 µM (inactive) | > 100 µM (inactive) | > 100 µM (inactive) | 96.4 µM (inactive) | 63.4 µM (inactive) | > 100 µM (inactive)
3 | C#CCNC(CSSCC(N)C(=O)O)C(=O)O (stereo not drawn) | > 100 µM (inactive) | > 100 µM (inactive) | > 100 µM (inactive) | > 100 µM (inactive) | > 100 µM (inactive) | > 100 µM (inactive) | > 100 µM (inactive) | > 100 µM (inactive) | > 100 µM (inactive) | > 100 µM (inactive) | 4.73 µM (inactive) | > 100 µM (inactive) | > 100 µM (inactive) | – | > 100 µM (inactive) | > 100 µM (inactive) | > 100 µM (inactive) | – | > 100 µM (inactive) | > 100 µM (inactive)
4 | S=C1NNC(=S)NN1 | 0.288 µM (active) | 0.328 µM (active) | > 1 µM (active) | 0.251 µM (active) | 0.583 µM (active) | > 1 µM (active) | > 1 µM (active) | > 1 µM (active) | 0.342 µM (active) | > 1 µM (active) | > 1 µM (active) | 0.594 µM (active) | 0.951 µM (active) | 0.178 µM (active) | > 1 µM (active) | 0.218 µM (active) | > 1 µM (active) | > 1 µM (active) | > 1 µM (active) | –
5 | Cc1ccc(CSC(=N)Nc2ccccc2)cc1C | 22.5 µM (inactive) | 18.7 µM (inactive) | 19.3 µM (inactive) | 22.9 µM (inactive) | 16.1 µM (inactive) | 19 µM (inactive) | 23.7 µM (inactive) | 16.3 µM (inactive) | 20.2 µM (inactive) | 17.4 µM (inactive) | 16 µM (inactive) | 17.1 µM (inactive) | 17.2 µM (inactive) | 21.2 µM (inactive) | 22.5 µM (inactive) | 38.3 µM (inactive) | 28.5 µM (inactive) | 18.6 µM (inactive) | – | 20.2 µM (inactive)
6 | COC1CC(OC2C(C)OC(OC3C(C)OC(OC4C(C)OC(O[C@H]5CC[C@@]6(C)C(=CC[C@]7(O)[C@@H]6C[C@@H](OC(=O)/C=C/c6ccccc6)[C@@]6(C)[C@]7(O)CC[C@@]6(O)C(C)=O)C5)CC4OC)CC3OC)CC2OC)OC(C)C1O (stereo partly drawn) | 5.98 µM (inactive) | > 12.5 µM (inactive) | 11 µM (inactive) | > 12.5 µM (inactive) | > 12.5 µM (inactive) | > 12.5 µM (inactive) | > 12.5 µM (inactive) | > 12.5 µM (inactive) | > 12.5 µM (inactive) | > 12.5 µM (inactive) | > 12.5 µM (inactive) | > 12.5 µM (inactive) | > 12.5 µM (inactive) | > 12.5 µM (inactive) | > 12.5 µM (inactive) | > 12.5 µM (inactive) | > 12.5 µM (inactive) | – | 3.11 µM (inactive) | > 12.5 µM (inactive)
7 | NC(=O)[N+](=CC(=S)Nc1ccccc1Cl)C(N)=O | > 100 µM (inactive) | > 100 µM (inactive) | > 100 µM (inactive) | > 100 µM (inactive) | > 100 µM (inactive) | > 100 µM (inactive) | 71.4 µM (inactive) | > 100 µM (inactive) | > 100 µM (inactive) | > 100 µM (inactive) | > 100 µM (inactive) | – | > 100 µM (inactive) | > 100 µM (inactive) | > 100 µM (inactive) | > 100 µM (inactive) | > 100 µM (inactive) | > 100 µM (inactive) | > 100 µM (inactive) | > 100 µM (inactive)
8 | Cn1c(=S)[nH]c2sc3c(c2c1=O)CCSC3 | 32.4 µM (inactive) | 44.3 µM (inactive) | 24.8 µM (inactive) | 36.9 µM (inactive) | 40.5 µM (inactive) | 39.8 µM (inactive) | 47.4 µM (inactive) | 47.1 µM (inactive) | – | 41.8 µM (inactive) | 23.9 µM (inactive) | 58.2 µM (inactive) | 25.1 µM (inactive) | 42.9 µM (inactive) | 44.2 µM (inactive) | 35.7 µM (inactive) | 80.5 µM (inactive) | 35.8 µM (inactive) | 11.7 µM (inactive) | 53.7 µM (inactive)
9 | C[Si](C)(C)CNC(=O)OCc1ccccc1 | 32.2 µM (inactive) | > 100 µM (inactive) | > 100 µM (inactive) | 76 µM (inactive) | > 100 µM (inactive) | > 100 µM (inactive) | > 100 µM (inactive) | > 100 µM (inactive) | > 100 µM (inactive) | > 100 µM (inactive) | 22.1 µM (inactive) | – | 19.1 µM (inactive) | 48.9 µM (inactive) | > 100 µM (inactive) | > 100 µM (inactive) | > 100 µM (inactive) | > 100 µM (inactive) | > 100 µM (inactive) | > 100 µM (inactive)
10 | Cc1cc(=O)nc(S(=O)(=O)NC(=O)Nc2cccc(Cl)c2)[nH]1 | – | > 100 µM (inactive) | 47.1 µM (inactive) | > 100 µM (inactive) | 97.3 µM (inactive) | > 100 µM (inactive) | > 100 µM (inactive) | > 100 µM (inactive) | 64.4 µM (inactive) | > 100 µM (inactive) | 6.93 µM (inactive) | > 100 µM (inactive) | > 88.5 µM (inactive) | > 100 µM (inactive) | > 30.5 µM (inactive) | > 100 µM (inactive) | > 100 µM (inactive) | > 100 µM (inactive) | 3.43 µM (inactive) | > 100 µM (inactive)
11 | N#Cc1cc2cc3c4c(c2oc1=O)CCCN4CCC3 | > 100 µM (inactive) | > 100 µM (inactive) | > 100 µM (inactive) | > 100 µM (inactive) | > 100 µM (inactive) | > 100 µM (inactive) | > 100 µM (inactive) | > 100 µM (inactive) | > 100 µM (inactive) | > 100 µM (inactive) | > 100 µM (inactive) | – | > 100 µM (inactive) | > 100 µM (inactive) | > 100 µM (inactive) | > 100 µM (inactive) | > 100 µM (inactive) | > 100 µM (inactive) | > 100 µM (inactive) | > 100 µM (inactive)
12 | N#C/C(N)=C(C#N)/N=C/N | > 100 µM (inactive) | > 100 µM (inactive) | > 100 µM (inactive) | > 100 µM (inactive) | > 100 µM (inactive) | > 100 µM (inactive) | – | > 100 µM (inactive) | > 100 µM (inactive) | > 100 µM (inactive) | > 100 µM (inactive) | > 100 µM (inactive) | > 100 µM (inactive) | > 100 µM (inactive) | > 100 µM (inactive) | > 100 µM (inactive) | > 100 µM (inactive) | > 100 µM (inactive) | 58.6 µM (inactive) | > 100 µM (inactive)
13 | C/C(=N\NC(=S)NC(C)(C)C)c1ccccn1 | < 0.01 µM (active) | < 0.01 µM (active) | < 0.01 µM (active) | < 0.0172 µM (active) | 0.0252 µM (active) | – | 4.5 µM (inactive) | < 0.01 µM (active) | < 0.01 µM (active) | < 0.01 µM (active) | 0.342 µM (active) | 2.83 µM (inactive) | < 0.01 µM (active) | < 0.01 µM (active) | < 0.01 µM (active) | < 0.01 µM (active) | 0.358 µM (active) | – | 0.189 µM (active) | –
14 | CCCCCCCCCCCCCCCCOP(=O)(O)OCC(NC(C)=O)C(=O)O (stereo not drawn) | 41.7 µM (inactive) | > 100 µM (inactive) | 98.2 µM (inactive) | 33 µM (inactive) | 20 µM (inactive) | > 100 µM (inactive) | 18.7 µM (inactive) | > 100 µM (inactive) | – | 54.1 µM (inactive) | 55.3 µM (inactive) | > 100 µM (inactive) | > 100 µM (inactive) | > 100 µM (inactive) | 18 µM (inactive) | > 100 µM (inactive) | 23.7 µM (inactive) | 39.1 µM (inactive) | > 100 µM (inactive) | > 100 µM (inactive)
15 | Fc1ccc2nc3n(c2c1)C(c1c(F)cccc1F)SC3 (stereo not drawn) | 60.4 µM (inactive) | 39.9 µM (inactive) | 54.8 µM (inactive) | 55 µM (inactive) | 76.4 µM (inactive) | 65.6 µM (inactive) | > 100 µM (inactive) | 45.2 µM (inactive) | – | 47.8 µM (inactive) | 46 µM (inactive) | > 100 µM (inactive) | 40.6 µM (inactive) | – | 40.7 µM (inactive) | 49.5 µM (inactive) | 96.4 µM (inactive) | 44 µM (inactive) | 30.9 µM (inactive) | 8.69 µM (inactive)
